Values joined by “and” are separate entries in the source; they are usually repeats but may differ in a detail not shown here. Equal entries are not always repeated. Where two headings read alike, the source gives them in different places.

Assay [1] concerns F. graminearum. Conditions: in vivo.
Assay [2] deals with F. graminearum. Format: in vivo.
In assay [3] the test system is F. graminearum. Format: in vivo. This is another data set of the same source.
The subject of assay [4] is F. graminearum. Particulars: in vivo. The source holds these as a separate data set.
Another assay relates to wheat leaves. Particulars: in vivo.
In assay [5] the test system is Arabidopsis seed germination. The format is in vivo.

Regarding silver thiosulphate, in the assay on F. graminearum [1], the conidial production result is recorded as “enhanced resistance” and the disease severity result is “enhanced resistance”.

With silver ions, in the assay on F. graminearum [2] (in vivo), the conidial production entry is recorded as “significantly reduced” and the lesion size result is “did not markedly alter”. Besides, in the assay with F. graminearum [3] (in vivo), the conidial production entry is on record as “significantly reduced” and the lesion size entry is listed as “did not markedly alter”. In addition, in the assay on F. graminearum [4], the “AUDPC versus water treated heads” value is “significantly lower” and the “disease development reduced versus water” value is 12-88%.

In the case of `C=C` [ethylene], the lesion size entry with F. graminearum [2] (wheat (Hobbit 'sib') leaves, ethephon 50 mM or silver thiosulphate 150 μm in agar) is “did not markedly alter”; with F. graminearum [3] (barley (Golden promise) leaves, ethephon 50 mM or silver thiosulphate 150 μm in agar), “did not markedly alter”. The conidial production entry with F. graminearum [2] (wheat leaves, 7 days, ET P=0.05, reduced ET perception (silver) P=0.003) is recorded as “significantly greater”; in the assay on F. graminearum [3] (barley leaves, 7 days, ET P=0.005, reduced ET perception (silver) P=0.043), “significantly greater”; with F. graminearum [1], “enhanced susceptibility”. In addition, the disease severity result with F. graminearum [1] is “enhanced susceptibility”.

On to `CC1=C[C@H]2O[C@@H]3[C@H](O)C[C@](C)([C@@]2(CO)[C@H](O)C1=O)[C@]31CO1` [DON, deoxynivalenol], for which, in the assay on wheat leaves, the “cell death about the inoculation point (trypan blue)” value is reported as “extensive cell death”; the “size of lesions (DON-induced cell death)” value was 0.127 cm^2 and 0.066 cm^2. The “effect on seed germination” value in assay [5] (FIG. 6) was “inhibits seed germination”.

Take `C=C1C[C@]23C[C@@]1(O)CC[C@H]2[C@@]12C=C[C@H](O)[C@@](C)(C(=O)O1)[C@H]2[C@@H]3C(=O)O` [GA, Gibberellic Acid]: the “effect on DON inhibition of seed germination” value in assay [5] (FIG. 7) was “can reverse the inhibitory effect of DON”.

Values taken from patent US20110190379A1 (priority 2008, published 2011).
